Experimental findings from PubChem BioAssay (NCI) are described below.

Where “and” joins values, the source holds several entries; their conditions need not be identical. Equal values may be shown once.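 Where inhibition never reached the appropriate level, the endpoint shown equals the highest concentration tested. Otherwise, values were interpolated linearly from a five-concentration, 48-hour dose response in 96-well plates. Here, GI50 denotes the concentration required for 50% inhibition of growth. At the TGI there is no net growth.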 A value given as a limit tells only on which side of the number the result lay.

Among the test systems are IGROV1 ovarian; K-562 leukemia; KM12 colon; MDA-MB-231 breast; MOLT-4 leukemia; SF-295 CNS; SF-539 CNS; SN12C renal; T-47D breast; UACC-257 melanoma.
Assay in all cases: DTP human tumour cell line panel, 48 h

Take `OCCNc1nc(NCCO)nc(Nc2ccc(C3=NN(c4cc(Cl)cc(Cl)c4)C(c4ccc(Cl)cc4)C3)cc2)n1` (stereo not given): the GI50 in the assay with IGROV1 ovarian is 2.48 µM; in the assay with K-562 leukemia, 1.73 µM; in the assay with KM12 colon, 1.85 µM; in the assay with MDA-MB-231 breast, 1.71 µM; in the assay with MOLT-4 leukemia, 1.52 µM; in the assay on SF-295 CNS, 1.47 µM. In addition, the GI50 was 1.35 µM in the assay with SF-539 CNS, 1.82 µM with SN12C renal, 1.5 µM in the assay with T-47D breast and 1.95 µM with UACC-257 melanoma. Further, the TGI in the assay with IGROV1 ovarian worked out at 5.68 µM; with K-562 leukemia it was 3.74 µM; in the assay with KM12 colon, 4 µM; in the assay with MDA-MB-231 breast it was 3.42 µM; with MOLT-4 leukemia it was 4.02 µM; with SF-295 CNS, 2.85 µM. Besides, the TGI with SF-539 CNS is 2.63 µM; in the assay on SN12C renal, 3.47 µM; in the assay with T-47D breast it was 3.88 µM; in the assay with UACC-257 melanoma, 3.78 µM.
With `Cn1cnc2c(F)c(Nc3ccc(Br)cc3Cl)c(C(=O)NOCCO)cc21`, the GI50 in the assay on IGROV1 ovarian was 0.264 µM and 1.34 µM; in the assay with K-562 leukemia it was > 10 µM and 12.3 µM; with KM12 colon, 0.685 µM and 0.847 µM; in the assay on MDA-MB-231 breast it was 0.822 µM and 1.94 µM; in the assay on MOLT-4 leukemia, > 10 µM and 62.2 µM; in the assay with SF-295 CNS, > 10 µM and 67.2 µM. Besides, the GI50 in the assay on SF-539 CNS was > 10 µM and 22.4 µM; in the assay on SN12C renal it was > 10 µM and 47.6 µM; in the assay with T-47D breast it was > 10 µM and 82.4 µM; in the assay with UACC-257 melanoma, 0.0212 µM and < 0.0177 µM. Besides, the total growth inhibition concentration (TGI) in the assay on IGROV1 ovarian, in the assay on K-562 leukemia, in the assay with KM12 colon, in the assay with MDA-MB-231 breast, in the assay on MOLT-4 leukemia and in the assay with SF-295 CNS was more than 100 µM in each case. The TGI in the assay on SF-539 CNS was more than 100 µM; in the assay with SN12C renal, more than 100 µM; in the assay on T-47D breast, more than 100 µM; with UACC-257 melanoma it was 0.207 µM and 0.0755 µM.
For `CN(C)c1cccc2[nH]c(-c3[nH]ncc3Nc3ccnc(N)n3)nc12`, the GI50 was 0.0201 µM in the assay with IGROV1 ovarian; 0.0167 µM in the assay on K-562 leukemia; 0.024 µM in the assay on KM12 colon; 0.0233 µM in the assay with MDA-MB-231 breast; 0.0258 µM in the assay with MOLT-4 leukemia; 0.0172 µM in the assay on SF-295 CNS. Moreover, the 50% growth inhibitory concentration (GI50) is less than 0.0118 µM in the assay on SF-539 CNS, 0.0233 µM in the assay with SN12C renal, 0.0331 µM in the assay with T-47D breast and 0.0318 µM in the assay with UACC-257 melanoma. The TGI with IGROV1 ovarian was 0.346 µM; in the assay on K-562 leukemia, 1.52 µM; in the assay on KM12 colon it was 0.283 µM; with MDA-MB-231 breast, 0.141 µM; in the assay on MOLT-4 leukemia, 10.2 µM; with SF-295 CNS, 0.0628 µM. Also, the total growth inhibition concentration (TGI) turned out to be 0.0608 µM in the assay on SF-539 CNS, 1.1 µM with SN12C renal, 2.01 µM in the assay on T-47D breast and 0.324 µM in the assay with UACC-257 melanoma.
As to `COc1ccc(NC2=C(Sc3nc(C)cc(C)n3)C(=O)N(Cc3ccccc3)C2=O)cc1Cl`, the GI50 was 108 µM in the assay with IGROV1 ovarian; more than 160 µM in the assay with K-562 leukemia; more than 160 µM in the assay with KM12 colon; 127 µM with MDA-MB-231 breast; 14.4 µM in the assay with MOLT-4 leukemia; 74.9 µM in the assay on SF-295 CNS. Besides, the results for the GI50 in the assay on SF-539 CNS, in the assay with T-47D breast and with UACC-257 melanoma were more than 160 µM, 25.1 µM and more than 160 µM, respectively. In addition, the TGI with IGROV1 ovarian, in the assay on K-562 leukemia, with KM12 colon, in the assay with MDA-MB-231 breast, in the assay with MOLT-4 leukemia and in the assay with SF-295 CNS was more than 160 µM throughout. Besides, the TGI in the assay with SF-539 CNS, in the assay with T-47D breast and with UACC-257 melanoma was more than 160 µM throughout.
On to `COc1ccc(C2=NNC(c3ccc(-c4ccc(OC)cc4[N+](=O)[O-])o3)C2)cc1` (stereo not given), for which the GI50 with IGROV1 ovarian is 59.9 µM; in the assay on K-562 leukemia, 36.4 µM; in the assay with KM12 colon, 27.4 µM; in the assay on MDA-MB-231 breast it was 1.89 µM; in the assay with MOLT-4 leukemia, 31 µM; with SF-295 CNS, 29.5 µM. Also, the GI50 in the assay with SF-539 CNS was 10.1 µM; in the assay on T-47D breast, 18.5 µM; in the assay with UACC-257 melanoma, 38.4 µM. For the same compound, the TGI with IGROV1 ovarian is more than 100 µM; with K-562 leukemia, more than 100 µM; with KM12 colon it was more than 100 µM; with MDA-MB-231 breast, 43.6 µM; in the assay with MOLT-4 leukemia, more than 100 µM; in the assay with SF-295 CNS it was more than 100 µM. Besides, the results for the TGI with SF-539 CNS, in the assay with T-47D breast and in the assay with UACC-257 melanoma were 23.1 µM, 88.1 µM and more than 100 µM, respectively.
Take `C=C1C(=O)O[C@H]2[C@H]1CC/C(COC(=O)NCCc1ccc(OC)cc1)=C\CC[C@@]1(C)O[C@@H]21`: the GI50 with IGROV1 ovarian was 2.61 µM; in the assay with K-562 leukemia, 3.08 µM; in the assay with KM12 colon it was 8.36 µM; in the assay on MDA-MB-231 breast, 2.02 µM; in the assay on MOLT-4 leukemia it was 2.61 µM; with SF-295 CNS it was 13.5 µM. For the same compound, the GI50 was 1.79 µM in the assay with SF-539 CNS, 2.47 µM in the assay with T-47D breast and 2.49 µM with UACC-257 melanoma. Besides, the TGI with IGROV1 ovarian came to 7.32 µM; in the assay with K-562 leukemia it was 10.3 µM; with KM12 colon it was 24.4 µM; in the assay with MDA-MB-231 breast it was 5.17 µM; in the assay on MOLT-4 leukemia, 6.77 µM; with SF-295 CNS it was 27.4 µM. Moreover, the TGI with SF-539 CNS is 4.21 µM; in the assay with T-47D breast it was 6.52 µM; in the assay on UACC-257 melanoma, 6.85 µM.
For the compound `CC1(C)OC2C(CO)OC(n3ccc(=O)[nH]c3=O)C2O1` (stereo not given), the TGI in the assay on IGROV1 ovarian, with K-562 leukemia, in the assay with MDA-MB-231 breast, in the assay on MOLT-4 leukemia, with SF-295 CNS and with SF-539 CNS was more than 100 µM throughout. The TGI with SN12C renal, in the assay with T-47D breast and in the assay with UACC-257 melanoma was more than 100 µM throughout.
With `CCOC(=O)c1cc2c(cc1Cl)SC(N(c1ccc(F)cc1)S(=O)(=O)c1ccc(OC)cc1)=NS2(=O)=O`, the GI50 with IGROV1 ovarian was 37.7 µM; with K-562 leukemia, 14.2 µM; in the assay on KM12 colon it was 22.8 µM; with MDA-MB-231 breast it was 19.2 µM; in the assay on MOLT-4 leukemia, 15.6 µM; in the assay on SF-295 CNS, 25.7 µM. Besides, the GI50 is 9.61 µM with SF-539 CNS, 19.3 µM in the assay on SN12C renal and 4.8 µM with T-47D breast. For the same compound, the TGI is more than 100 µM with IGROV1 ovarian; 31.1 µM in the assay with K-562 leukemia; 63.9 µM with KM12 colon; 53.5 µM in the assay on MDA-MB-231 breast; 37.9 µM in the assay with MOLT-4 leukemia; 74.8 µM with SF-295 CNS. Besides, the TGI was determined as 22.7 µM with SF-539 CNS, 50 µM in the assay on SN12C renal and 21.9 µM with T-47D breast.
On to `CCCCCCC(C)CC(CCCCCC)NCCOC(=O)c1ccc([N+](=O)[O-])cc1` (stereo not given), for which the TGI in the assay with IGROV1 ovarian was 27 µM and 25.1 µM; in the assay on K-562 leukemia it was 1.84 µM; with KM12 colon, 27.9 µM and 23.7 µM; in the assay with MDA-MB-231 breast it was 23.5 µM and 20.9 µM; with SF-295 CNS, 25.3 µM and 31.3 µM; in the assay on SF-539 CNS it was 30.1 µM and 27 µM. Also, the TGI was 25.2 µM and 23.8 µM with SN12C renal; 39.3 µM and 38.1 µM with T-47D breast; 21.4 µM and 16.8 µM in the assay on UACC-257 melanoma.

In general, GI50 refers to the concentration giving 50% growth inhibition. The term TGI denotes the concentration giving total growth inhibition. Low readings indicate more potent growth arrest, high ones less potent growth arrest.
